The test has as its target T1, Human OTUB1 wild-type (Homo sapiens, UniProt Q96FW1).
T1 construct: His tag (N); made in house; host or cells: E. coli BL21-CodonPlus (DE3)-RIPIL
Description: Covalent modification of OTUB1 (adduct formation), mass spectrometry-based assay (OTUB1 covalent binders; selected CFTR or cGAS based bivalent compounds). The class given is binding. Particulars: covalent adduct formation with OTUB1 protein. In outline: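 His-tagged human OTUB1 (10 μM), E. coli-expressed, incubated with compound (2500 μM) in 50 mM Tris-HCl pH 7.5, 150 mM NaCl, 0.5 mM TCEP for 1 h at room temperature. Adduct detected by intact-protein LC/ESI-TOF mass spectrometry after buffer exchange; duplicates.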
T1 sequence (Q96FW1 whole entry): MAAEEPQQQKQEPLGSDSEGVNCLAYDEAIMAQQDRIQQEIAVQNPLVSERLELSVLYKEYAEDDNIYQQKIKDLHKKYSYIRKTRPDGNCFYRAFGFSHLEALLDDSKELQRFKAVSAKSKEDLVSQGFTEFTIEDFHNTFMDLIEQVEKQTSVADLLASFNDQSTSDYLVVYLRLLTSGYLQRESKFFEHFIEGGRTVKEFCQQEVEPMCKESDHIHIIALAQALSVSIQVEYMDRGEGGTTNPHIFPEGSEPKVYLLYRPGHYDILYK
As to `CN(C)C/C=C/C(=O)N1Cc2ccccc2C1` [XS197-186, (E)-4-(dimethylamino)-1-(isoindolin-2-yl)but-2-en-1-one], the “% of OTUB1 modified” value turned out to be 15%.
The result for `Cc1ccc(NC(=O)C2(C)CN(C(=O)/C=C/CN(C)C)C2)s1` [XS209-21, (E)-1-(4-(dimethylamino)but-2-enoyl)-3-methyl-N-(5-methylthiophen-2-yl)azetidine-3-carboxamide] reads 22%; that for `Cc1ccc(NC(=O)C2(O)CN(C(=O)/C=C/CN(C)C)C2)s1` [XS209-22, (E)-1-(4-(dimethylamino)but-2-enoyl)-3-hydroxy-N-(5-methylthiophen-2-yl)azetidine-3-carboxamide], 47%.
The result for `Cc1cnc(NC(=O)C2(C)CN(C(=O)/C=C/CN(C)C)C2)o1` [XS209-23, (E)-1-(4-(dimethylamino)but-2-enoyl)-3-methyl-N-(5-methyloxazol-2-yl)azetidine-3-carboxamide] reads 10%; that for `COc1ccc2c(c1)CN(C(=O)/C=C/CN(C)C)C2` [XS209-25, (E)-4-(dimethylamino)-1-(5-methoxyisoindolin-2-yl)but-2-en-1-one], 5%; that for `Cc1ccc(C(=O)N2CC3CC(C2)N3C(=O)C#CCN(C)C)s1` [XS209-26, 4-(dimethylamino)-1-(3-(5-methylthiophene-2-carbonyl)-3,6-diazabicyclo[3.1.1]heptan-6-yl)but-2-yn-1-one], 98%.
Consider `CCC(=O)N1CC2CC(C1)N2C(=O)/C=C/CN(C)C` [XS209-28, (E)-4-(dimethylamino)-1-(3-propionyl-3,6-diazabicyclo[3.1.1]heptan-6-yl)but-2-en-1-one], for which the “% of OTUB1 modified” value stood at 25%.
As to `CN(C)C/C=C/C(=O)N1C2CCC1C(=O)N(C1=CCCCC1)C2` (stereo not drawn) [XS209-30, (E)-3-(cyclohex-1-en-1-yl)-8-(4-(dimethylamino)but-2-enoyl)-3,8-diazabicyclo[3.2.1]octan-2-one], the “% of OTUB1 modified” value is on record as 75%.
The value for `Cc1cnc(NC(=O)C2(C)CN(C(=O)/C=C/CN(C)C)C2)s1` [XS209-38, (E)-1-(4-(dimethylamino)but-2-enoyl)-3-methyl-N-(5-methylthiazol-2-yl)azetidine-3-carboxamide] was 20%; that for `Cc1cnc(NC(=O)C2(O)CN(C(=O)/C=C/CN(C)C)C2)s1` [XS209-39, (E)-1-(4-(dimethylamino)but-2-enoyl)-3-hydroxy-N-(5-methylthiazol-2-yl)azetidine-3-carboxamide] was 40%.
Regarding `CCCC(=O)N1CC2CC(C1)N2C(=O)/C=C/CN(C)C` [XS209-40, (E)-1-(3-butyryl-3,6-diazabicyclo[3.1.1]heptan-6-yl)-4-(dimethylamino)but-2-en-1-one], the “% of OTUB1 modified” value stood at 60%.
The value for `CC(=O)N1CCC2(CCC(C(=O)N3CC4CC(C3)N4C(=O)/C=C/CN(C)C)CC2)C1` (stereo not drawn) [XS209-53, (E)-1-(3-(2-acetyl-2-azaspiro[4.5]decane-8-carbonyl)-3,6-diazabicyclo[3.1.1]heptan-6-yl)-4-(dimethylamino)but-2-en-1-one] was 40%.
On to `CC(=O)N1CC2(CCC(C(=O)N3CC4CC(C3)N4C(=O)/C=C/CN(C)C)CC2)C1` [XS209-54, (E)-1-(3-(2-acetyl-2-azaspiro[3.5]nonane-7-carbonyl)-3,6-diazabicyclo[3.1.1]heptan-6-yl)-4-(dimethylamino)but-2-en-1-one], for which the “% of OTUB1 modified” value was determined as 35%.
Turning to `Cc1cnc(C(=O)N2CC3CC(C2)N3C(=O)/C=C/CN(C)C)s1` [XS209-65, (E)-4-(dimethylamino)-1-(3-(5-methylthiazole-2-carbonyl)-3,6-diazabicyclo[3.1.1]heptan-6-yl)but-2-en-1-one], the “% of OTUB1 modified” value turned out to be 80%.
The result for `Cc1ccc(N2CC3CCC(C2=O)N3C(=O)C#CC(C)(C)N(C)C)s1` (stereo not drawn) [XS209-74, 8-(4-(dimethylamino)-4-methylpent-2-ynoyl)-3-(5-methylthiophen-2-yl)-3,8-diazabicyclo[3.2.1]octan-2-one] reads 98%; that for `Cc1ccc(C(=O)N2CC3CC(C2)N3C(=O)C#CC(C)(C)N(C)C)s1` [XS209-75, 4-(dimethylamino)-4-methyl-1-(3-(5-methylthiophene-2-carbonyl)-3,6-diazabicyclo[3.1.1]heptan-6-yl)pent-2-yn-1-one], 75%; that for `Cc1cnc(C(=O)N2CC3CC(C2)N3C(=O)/C=C/CN(C)C)o1` [XS209-92, (E)-4-(dimethylamino)-1-(3-(5-methyloxazole-2-carbonyl)-3,6-diazabicyclo[3.1.1]heptan-6-yl)but-2-en-1-one], 15%.
With `Cc1ccc(NC(=O)C2(O)CN(C(=O)C#CCN(C)C)C2)s1` [XS209-99, 1-(4-(dimethylamino)but-2-ynoyl)-3-hydroxy-N-(5-methylthiophen-2-yl)azetidine-3-carboxamide], the “% of OTUB1 modified” value worked out at 98%.
The result for `Cc1ccc(NC(=O)C2(O)CN(C(=O)C#CC(C)(C)N(C)C)C2)s1` [XS209-100, 1-(4-(dimethylamino)-4-methylpent-2-ynoyl)-3-hydroxy-N-(5-methylthiophen-2-yl)azetidine-3-carboxamide] reads 25%.
The value for `CC(=O)N1CC2CC(C1)N2C(=O)C#CCN(C)C` [XS209-101, 1-(3-acetyl-3,6-diazabicyclo[3.1.1]heptan-6-yl)-4-(dimethylamino)but-2-yn-1-one] was 100%; that for `Cc1ccc(NC(=O)C2CC3CCC(C2)N3C(=O)/C=C/CN(C)C)s1` (stereo not drawn) [XS209-122, (E)-8-(4-(dimethylamino)but-2-enoyl)-N-(5-methylthiophen-2-yl)-8-azabicyclo[3.2.1]octane-3-carboxamide] was 2%; that for `Cc1ccc(C(=O)NC2CC3CCC(C2)N3C(=O)/C=C/CN(C)C)s1` (stereo not drawn) [XS209-139, (E)-N-(8-(4-(dimethylamino)but-2-enoyl)-8-azabicyclo[3.2.1]octan-3-yl)-5-methylthiophene-2-carboxamide] was 2%.
As to `Cc1ccc(C(=O)Nc2ccc(NC(=O)/C=C/CN(C)C)cc2)s1` [XS209-165, (E)-N-(4-(4-(dimethylamino)but-2-enamido)phenyl)-5-methylthiophene-2-carboxamide], the “% of OTUB1 modified” value was 20%.
As to `CCCC(=O)N1CC2CC(C1)N2C(=O)C#CCN(C)C` [XS209-166, 1-(3-butyryl-3,6-diazabicyclo[3.1.1]heptan-6-yl)-4-(dimethylamino)but-2-yn-1-one], the “% of OTUB1 modified” value is reported as 90%.
The value for `CCCC(=O)N1CC2CC(C1)N2C(=O)C#CC(C)(C)N(C)C` [XS209-168, 1-(3-butyryl-3,6-diazabicyclo[3.1.1]heptan-6-yl)-4-(dimethylamino)-4-methylpent-2-yn-1-one] was 15%; that for `CN(C)CC#CC(=O)N1CC(C)(C(=O)Nc2cc3ccccc3s2)C1` [XS209-175, N-(benzo[b]thiophen-2-yl)-1-(4-(dimethylamino)but-2-ynoyl)-3-methylazetidine-3-carboxamide] was 90%; that for `CN(C)C/C=C/C(=O)N1CC(O)(C(=O)Nc2cc3c(s2)CCCC3)C1` [XS209-176, (E)-1-(4-(dimethylamino)but-2-enoyl)-3-hydroxy-N-(4,5,6,7-tetrahydrobenzo[b]thiophen-2-yl)azetidine-3-carboxamide] was 55%.
The result for `CC(=O)N1CCN(c2ccc(C(=O)N3CC4CC(C3)N4C(=O)/C=C/CN(C)C)s2)CC1` [XS209-184, (E)-1-(3-(5-(4-acetylpiperazin-1-yl)thiophene-2-carbonyl)-3,6-diazabicyclo[3.1.1]heptan-6-yl)-4-(dimethylamino)but-2-en-1-one] reads 80%; that for `CN(C)C/C=C/C(=O)N1C2CC1CN(C(=O)c1ccc(N3CCN(C)CC3)s1)C2` [XS209-185, (E)-4-(dimethylamino)-1-(3-(5-(4-methylpiperazin-1-yl)thiophene-2-carbonyl)-3,6-diazabicyclo[3.1.1]heptan-6-yl)but-2-en-1-one], 85%.
For `CN(C)CC#CC(=O)N1CC(C(=O)Nc2cc3ccccc3s2)C1` [XS224-106, N-(benzo[b]thiophen-2-yl)-1-(4-(dimethylamino)but-2-ynoyl)azetidine-3-carboxamide], the “% of OTUB1 modified” value was determined as 98%.
For `CN(C)C(C)(C)C#CC(=O)N1CC(C(=O)Nc2cc3ccccc3s2)C1` [XS224-107, N-(benzo[b]thiophen-2-yl)-1-(4-(dimethylamino)-4-methylpent-2-ynoyl)azetidine-3-carboxamide], the “% of OTUB1 modified” value turned out to be 60%.
The value for `CN(C)CC#CC(=O)N1CC(C(=O)Nc2cc3c(s2)CCCC3)C1` [XS224-108, 1-(4-(dimethylamino)but-2-ynoyl)-N-(4,5,6,7-tetrahydrobenzo[b]thiophen-2-yl)azetidine-3-carboxamide] was 100%; that for `CN(C)C(C)(C)C#CC(=O)N1CC(C(=O)Nc2cc3c(s2)CCCC3)C1` [XS224-109, 1-(4-(dimethylamino)-4-methylpent-2-ynoyl)-N-(4,5,6,7-tetrahydrobenzo[b]thiophen-2-yl)azetidine-3-carboxamide] was 75%; that for `Cc1ccc(NC(=O)C2CN(C(=O)C#CCN(C)C)C2)s1` [XS224-110, 1-(4-(dimethylamino)but-2-ynoyl)-N-(5-methylthiophen-2-yl)azetidine-3-carboxamide] was 100%.
For `Cc1ccc(NC(=O)C2CN(C(=O)C#CC(C)(C)N(C)C)C2)s1` [XS224-111, 1-(4-(dimethylamino)-4-methylpent-2-ynoyl)-N-(5-methylthiophen-2-yl)azetidine-3-carboxamide], the “% of OTUB1 modified” value came to 53%.
The value for `CC(C)c1ccc(NC(=O)C2CN(C(=O)C#CCN(C)C)C2)s1` [XS224-116, 1-(4-(dimethylamino)but-2-ynoyl)-N-(5-isopropylthiophen-2-yl)azetidine-3-carboxamide] was 100%.

Values taken from patent publication US20260315604A1, “OTUB1 Small-Molecule Binders and OTUB1-recruiting Deubiquitinase-targeting Chimeras (DUBTACs)” (ICAHN SCHOOL OF MEDICINE AT MOUNT SINAI, priority 2023, published 2026).
